Patent US6486196B2, “Anticancer compounds: process for their preparation and pharmaceutical compositions containing them” (Dr. Reddy's Research Foundation, priority 2000, dated 2002)

Key:
PC-3 = experiment: Sulforhodamine B growth inhibition, prostate PC-3; assay type: cell-based, human; settings: 48 h, SRB, read-out: GROWTH INHIBITION (GI 50)
Procedure: (§1) Each test compound was screened against a battery of cell lines representing eight different types of cancers. In a typical procedure, 1×10^4 cells were seeded into each well of 96 well plate in 100 μL volume of RPMI 1640 medium containing antibiotics and 10% FCS.
(§2) The plates were incubated at 37° C. in presence of CO2. After 24 h, test compounds were evaluated at five 10 fold dilutions ranging from 100 to 0.01 μM. To each test well 100 μL of test compound solution was added and medium with vehicle was added to control wells and the plates were further incubated. After 48 h of incubation, plates were terminated by Sulforhodamine B method.
(§3) The optical density which is proportional to protein mass, is then read by automated spectrophotometric plate reader at a wavelength of 515 nm.

MCF-7/ADR = experiment: Sulforhodamine B growth inhibition, breast MCF-7/ADR; assay type: cell-based, human; settings: 48 h, SRB, read-out: GROWTH INHIBITION (GI 50)
Procedure: as §1, §2, §3

DU145 = experiment: Sulforhodamine B growth inhibition, prostate DU145; assay type: cell-based, human; settings: 48 h, SRB, read-out: GROWTH INHIBITION (GI 50)
Procedure: as §1, §2, §3

A498 = experiment: Sulforhodamine B growth inhibition, renal A498; assay type: cell-based, human; settings: 48 h, SRB, read-out: GROWTH INHIBITION (GI 50)
Procedure: as §1, §2, §3

H522 = experiment: Sulforhodamine B growth inhibition, lung H522; assay type: cell-based, human; settings: 48 h, SRB, read-out: GROWTH INHIBITION (GI 50)
Procedure: as §1, §2, §3

C57BL/KsJ-db/db mice = experiment: Blood sugar and triglycerides lowering in db/db mice; assay type: in vivo; settings: 100 mg/kg oral gavage daily for 6 days, plasma
Description: Mutution in colonies of laboratory animals and different sensitivities to dietary regimens have made the development of animal models with non-insulin dependent diabetes and hyperlipidemia associated with obesity and insulin resistance possible. Genetic models such as db/db mice have been developed by the various laboratories for understanding the pathophysiology of disease and testing the efficacy of new antidiabetic compounds (Diabetes, (1983) 32: 830-838; Annu. Rep. Sankyo Res. Lab. (1994) 46:1-57). The homozygous animals, C57 BL/KsJ-db/db mice developed by Jackson Laboratory, US, are obese, hyperglycemic, hyperinsulinemic and insulin resistant (J. Clin, Invest., (1990) 85: 962-967), whereas heterozygous are lean and normoglycemic. […]
The random blood sugar and triglyceride levels were measured by collecting blood (100 μl) through orbital sinus, using heparinised capillary in tubes containing EDTA which was centrifuged to obtain plasma. The plasma glucose and triglyceride levels were measured spectrometrically, by glucose oxidase and glycerol-3-PO4 oxidase/peroxidase enzyme (Dr. Reddy's Lab. Diagnostic Division Kits, Hyderabad, India) methods respectively.
The blood sugar and triglycerides lowering activities of the test compound was calculated according to the formula: [formula]
Body weight of the animals were measured at the beginning and at the end of the study period.

MCF7 = experiment: Sulforhodamine B growth inhibition, breast MCF7; assay type: cell-based, human; settings: 48 h, SRB, read-out: GROWTH INHIBITION (GI 50)
Procedure: as §1, §2, §3

HIV-1/MN = experiment: Anti HIV activity in PM-1 cells (P24 ELISA, MTT corrected); assay type: cell-based; settings: 1 μM; PM-1 cells infected with HIV-1/MN, 96 h, P24 antigen corrected by MTT
Procedure: Human CD^4+ T cell line PM-1 used in the assay was cultured in RPMI-1640 medium containing 10% Fetal bovine serum, 2 g/L sodium bicarbonate, 100,000 units/L Pencillin-G and 100 mg/L streptomycin. Healthy PM-1 cells were plated on the first day in a 96 well plate at 2×10^6 cells per well. After 24 h HIV-1/MN was added to the culture and incubated for 2 h for infection. Cells were washed twice with PBS to remove the virus in the culture. Different concentrations of DRF compounds ranging from 10−^4 to 10^−8 M were added to the culture and incubated for 96 h. The viability of cells was then assessed by standard MTT assay and the viral antigen P24 levels were estimated by ELISA method. Based on the MTT assay values the P 24 antigen values were corrected.
All the samples were tested in triplicates and the average was used for calculations. AZT was used as standard compound for comparision.

HT29 = experiment: Sulforhodamine B growth inhibition, colon HT29; assay type: cell-based, human; settings: 48 h, SRB, read-out: GROWTH INHIBITION (GI 50)
Procedure: as §1, §2, §3

U251 = experiment: Sulforhodamine B growth inhibition, CNS U251; assay type: cell-based, human; settings: 48 h, SRB, read-out: GROWTH INHIBITION (GI 50)
Procedure: as §1, §2, §3

UACC62 = experiment: Sulforhodamine B growth inhibition, melanoma UACC62; assay type: cell-based, human; settings: 48 h, SRB, read-out: GROWTH INHIBITION (GI 50)
Procedure: as §1, §2, §3

PA1 = experiment: Sulforhodamine B growth inhibition, ovarian PA1; assay type: cell-based, human; settings: 48 h, SRB, read-out: GROWTH INHIBITION (GI 50)
Procedure: as §1, §2, §3

SKOV-3 = experiment: Sulforhodamine B growth inhibition, ovarian SKOV-3; assay type: cell-based, human; settings: 48 h, SRB, read-out: GROWTH INHIBITION (GI 50)
Procedure: as §1, §2, §3

Swiss albino mice = experiment: Plasma triglyceride and body weight reduction in Swiss albino mice; assay type: in vivo
Procedure: Male Swiss albino mice (SAM) were obtained from NIN and housed in DRF animal house. All these animals were maintained under 12 hour light and dark cycle at 25±1° C. Animals were given standard laboratory chow (NIN, Hyderabad, India) and water, ad libitum. SAM of 20-25 g body weight range (Oliver, P., Plancke, M. O., Marzin, D., Clavey, V., Sauzieres, J and Fruchart, J. C. Effects of fenofibrate, gemfibrozil and nicotinic acid on plasma lipoprotein levels in normal and hyperlipidemic mice. Atherosclerosis. 1988. 70: 107-114)
The test compounds were administered orally to Swiss albino mice at 30 to 500 mg/kg/day dose for 6 days. Control mice were treated with vehicle (Chremophore/DMSO/H2O; dose 10 ml/kg).
The blood samples were collected in fed state 1 hour after drug administration on 0 and 6 day of treatment. The blood was collected from the retro-orbital sinus through heparinised capillary in EDTA containing tubes. After centrifugation, plasma sample was separated for triglyceride (Wieland, 0. Methods of Enzymatic analysis, Bergerneyer, H. O., Ed., 1963. 211-214; Trinder, P. Ann. Clin. Biochem. 1969. 6: 24-27). Measurement of plasma triglycerides was done using commercial kits (Dr. Reddy's Diagnostic Division, Hyderabad, India).
The formula used to measure percent reduction in blood sugar/triglycerides is given above.

SW-620 = experiment: Sulforhodamine B growth inhibition, colon SW-620; assay type: cell-based, human; settings: 48 h, SRB, read-out: GROWTH INHIBITION (GI 50)
Procedure: as §1, §2, §3

Human lymphocytes = experiment: Lymphocyte proliferation (tritiated thymidine incorporation); assay type: cell-based; settings: 1 μM; human lymphocytes with Phytohemagglutitin A
Procedure: Human lymphocytes were isolated from whole blood by using Ficoll Hypaque Plus (Amersham). On day one, 1 million lymphocytes were seeded into each well of 96 well plate in 100 μL volume of RPMI 1640 medium containing 10% FCS and Phytohemagglutitin A at 1 μg/well concentration. Plates were incubated at 37° C. in CO2 incubator for 24 h. Test compounds at various concentrations were added to test wells and only medium with vehicle was added to control wells. After 48 h of incubation […] of tritiated thymidine was added to each well. After 24 h of thymidine addition the cells were harvested and the incorporated radioactivity was determined.
Stimulation Index (SI) was calculated using the formula, […]

C=C1CC[C@@H]2[C@](C)(COC(C)=O)[C@H](OC(C)=O)CC[C@@]2(C)[C@@H]1C/C=C1/C(=O)OC[C@H]1OC(=O)C(OC(C)=O)C(NC(C)=O)c1ccccc1 (stereo partly drawn) [Example 16, 3,19-Diacetyl-14-(2′-acetyl 3′-acetamido 3′-phenyl)propionyl andrographolide]
GI50 (PC-3): 6.5 µM
GI50 (MCF-7/ADR): 5.5 µM
GI50 (DU145): 6.5 µM
GI50 (A498): 9 µM
GI50 (H522): 6 µM
Percentage reduction Glucose (C57BL/KsJ-db/db mice): 64%
Percentage reduction TG (C57BL/KsJ-db/db mice): 54%
GI50 (MCF7): 5 µM
Percentage Inhibition (HIV-1/MN): 61.06%
GI50 (HT29): 6.5 µM
GI50 (U251): 4 µM
GI50 (UACC62): 3000 nM
GI50 (PA1): 2000 nM
GI50 (SKOV-3): 4 µM
Percentage reduction Body weight (Swiss albino mice; 100 mg/kg orally for 6 days): 9%
Percentage reduction TG (Swiss albino mice; 100 mg/kg orally for 6 days): 42%
Percentage reduction Body weight (Swiss albino mice; 250 mg/kg orally for 6 days): 15%
Percentage reduction Body weight (Swiss albino mice; 500 mg/kg orally for 6 days): 23%
Percentage reduction TG (Swiss albino mice; 500 mg/kg orally for 6 days): 62%
GI50 (SW-620): 6 µM
Stimulation Index (SI) (Human lymphocytes): 90
